Key:
Assay type in all cases: in vivo, human
[1] = system: clinically stable subjects with schizophrenia; assay: UCSD Performance-Based Skills Assessment-2 (UPSA-2), Clinical Study A
Text: (§1) A Phase 2a proof-of-concept (POC) study in clinically stable subjects with schizophrenia who were clinically stable and received stable doses of atypical antipsychotic therapy. The study was a Phase 2, multi-center, randomized, double-blind, placebo-controlled, parallel group study designed to evaluate the safety and efficacy of doses of (4s)-4-(5-phenyl-1,3,4-thiadiazol-2-yloxy)-1-azatricyclo[3.3.1.1^3,7]decane (Compound A) in clinically stable male and female subjects (ages 20 to 55, inclusive) with a Diagnostic and Statistical Manual of Mental Disorders—Fourth Edition, Text Revision (DSM-IV-TR) diagnosis of schizophrenia. Psychiatric diagnoses were confirmed using the Mini-International Neuropsychiatric Interview (MINI) version 6.0.0. The criteria for clinical stability was determined by a combination of retrospective data (over the 4 months prior to the start of Screening, which will be supported by clinical records, patient, identified responsible contact person, and physician interviews), and prospective data assessed during the Prospective Stabilization Period of 28 to 42 days duration.
The study was a Phase 2, multi-center, randomized, double-blind, placebo-controlled, parallel group study designed to evaluate the safety and efficacy of doses of (4s)-4-(5-phenyl-1,3,4-thiadiazol-2-yloxy)-1-azatricyclo[3.3.1.1^3,7]decane, which is also recognized as Compound A, in treating cognitive deficits in subjects with schizophrenia who were clinically stable and receiving one or two atypical antipsychotic medications. Study drug was administered orally.
(§2) The study consisted of a screening period of at least 28 and up to 42 days, a 84-day outpatient treatment period, a 14-day post-treatment period, and a post-treatment follow-up period. The screening period consisted of three visits: Screening Visit 1, Screening Visit 2, and Day −1. Upon completion of Day −1 procedures, eligible subjects were randomized through an Interactive Voice Response/Interactive Web-Based (IVR/IWB) system. Subjects were randomized in an equal ratio to one of three treatment groups (placebo, 10 mg Compound A, or 25 mg Compound A).
(§3) The primary endpoint was the MCCB composite score, and the primary endpoint analysis was the change on the MCCB composite score from baseline to endpoint versus placebo. Other secondary measures included the MCCB domains, the NSA-16, the CANTAB cognition battery (measured at different time points from the MCCB), and the UPSA-2. The Positive and Negative Syndrome Scale (PANSS) was included to document stability in schizophrenia symptomatology.
The UCSD Performance-Based Skills Assessment-2 (UPSA-2) is a role-play test designed for subjects with schizophrenia to evaluate cognitive functional capacity in six selected domains of basic living skills. These areas include Organization/Planning, Financial Skills, Communication, Transportation, Household Management, and Medication Management. […] Scores were obtained for each subtest, and the total score was the sum of these subtests. […] The UPSA-2 required an average of 30 minutes to administer. The UPSA-2 was administered in on Days 14, 28, 56, 84 and 98.

[2] = system: clinically stable subjects with schizophrenia; assay: Disposition of subjects and tolerability, Clinical Study A
Text: as §1, §2
Subjects completed 2 visits during the screening period. Study site personnel contacted each subject by telephone on Day 21, 35, and 70 of the 84-day treatment period to discuss study drug compliance, antipsychotic medication compliance, concomitant medication use, substance use, and any adverse events.
A total of 207 subjects were randomized.

[3] = system: subjects with schizophrenia who were not current smokers; assay: MCCB composite score in non-smokers by COMT SNP, Clinical Study A; details: for MCCB composite score, change score: subjects who were not current smokers; for MCCB Change from Baseline to Final Mean(SD) / MCCB Between-group Difference (Pooled SD) / MCCB Effect Size (Raw mean): non-smokers; for treatment effect on MCCB: nonsmokers
Experimental: Analysis of the data by cigarette smoking status (current smoker or current nonsmoker) indicated a significant […] interaction (p=0.015).
A blood sample for genotyping was collected from each subject who consented. Genomic DNA was isolated from whole blood using the FlexiGene DNA AGF3000 kit (Qiagen, Valencia, Calif.), on an AutogenFlex 3000 (AutoGen, Holliston, Mass.). Genotypes were determined using the Pyrosequencing detection method (USA—Qiagen, Inc., Valencia, Calif.). Individuals performing the genotyping were blinded to clinical trial data. The significance of the minor allele against the major allele is shown in column marked “Treatment genotype p-value” (Tables 6 and 7).
A similar dose-response trend was observed across the four COMT SNPs in the population of nonsmokers as well (data not shown).

[4] = system: clinically stable subjects with schizophrenia; assay: CANTAB cognition battery, Clinical Study A; details: 10 mg and 25 mg dose groups
Text: as §3
The Cambridge Neuropsychological Test Automated Battery (CANTAB) is a computer-based cognitive assessment system consisting of a battery of neuropsychological tests, administered to subjects using a touch screen computer. […] The CANTAB computerized system will be employed to explore the effects of Compound A on cognition. The tests assess the following cognitive domains: executive function, spatial memory, attention and episodic memory. The CANTAB battery took approximately 40 minutes to administer and was given on Days 14, 28, 56, 84 and 98.

[5] = RS4633 C/C (major allele), 25 mg vs placebo
[6] = RS4633 T/T or C/T (minor allele), 10 mg vs placebo
[7] = RS4633 T/T or C/T (minor allele), 25 mg vs placebo
[8] = RS4680 A/A or G/A (minor allele), 10 mg vs placebo
[9] = RS4680 A/A or G/A (minor allele), 25 mg vs placebo
[10] = RS4680 G/G (major allele), 25 mg vs placebo
[11] = RS4818 C/C (major allele), 25 mg vs placebo
[12] = RS4818 G/C or G/G (minor allele), 10 mg vs placebo
[13] = RS4818 G/C or G/G (minor allele), 25 mg vs placebo
[14] = RS6269 A/A (major allele), 25 mg vs placebo
[15] = RS6269 G/G or A/G (minor allele), 10 mg vs placebo
[16] = RS6269 G/G or A/G (minor allele), 25 mg vs placebo

## c1ccc(-c2nnc(O[C@@H]3C4CC5C[C@H]3C[N@](C5)C4)s2)cc1 [Compound A, (4s)-4-(5-phenyl-1,3,4-thiadiazol-2-yloxy)-1-azatricyclo[3.3.1.1^3,7]decane]
[1]; 10 mg, P=0.094
  UPSA-2 medication management subscale score: statistically significant improvement or statistical trend for improvement
[1]; 10 mg, P=0.096
  UPSA-2 household skills subscale score: statistically significant improvement or statistical trend for improvement
[1]; 10 mg, P=0.102
  UPSA-2 comprehension/planning subscale score: statistically significant improvement or statistical trend for improvement
[1]; 25 mg, P=0.005
  UPSA-2 comprehension/planning subscale score: statistically significant improvement or statistical trend for improvement
[1]; either dose group (10 mg, 25 mg)
  UPSA-2 composite score, significance versus placebo: No significance
[2]; 10 mg QD
  Discontinuation: Adverse event: 4 (5.8) n (%)
[2]; 25 mg QD
  Discontinuation: Adverse event: 3 (4.5) n (%)
[2]; Compound A overall
  Discontinuation: Adverse event: 7 (5.1) n (%)
[2]; subjects with schizophrenia, doses up to 25 mg QD, including 10 mg QD and 25 mg QD
  tolerability: well tolerated
[3]; 10 mg, p=0.021
  MCCB composite score, change score: +2.1
[3]; 25 mg, p=0.001
  MCCB composite score, change score: +4.5
[3]; RS4633 C/C (major allele), 25 mg
  MCCB Change from Baseline to Final Mean(SD): 7.4(6.1)
[3]; [5]
  MCCB Between-group Difference (Pooled SD): 8.4(5.1)
  MCCB Effect Size (Raw mean): 1.65
[3]; RS4633 T/T or C/T (minor allele), 10 mg
  MCCB Change from Baseline to Final Mean(SD): 2.4(7.3)
[3]; [6]
  MCCB Between-group Difference (Pooled SD): 2.7(6.1)
  MCCB Effect Size (Raw mean): 0.44
[3]; RS4633 T/T or C/T (minor allele), 25 mg
  MCCB Change from Baseline to Final Mean(SD): 2.4(5.4)
[3]; [7]
  MCCB Between-group Difference (Pooled SD): 2.7(4.9)
  MCCB Effect Size (Raw mean): 0.55
[3]; RS4680 A/A or G/A (minor allele), 10 mg
  MCCB Change from Baseline to Final Mean(SD): 2.2(7.5)
[3]; [8]
  MCCB Between-group Difference (Pooled SD): 2.4(6.4)
  MCCB Effect Size (Raw mean): 0.38
[3]; RS4680 A/A or G/A (minor allele), 25 mg
  MCCB Change from Baseline to Final Mean(SD): 2.4(5.4)
[3]; [9]
  MCCB Between-group Difference (Pooled SD): 2.6(4.7)
  MCCB Effect Size (Raw mean): 0.55
[3]; RS4680 G/G (major allele), 25 mg
  MCCB Change from Baseline to Final Mean(SD): 7.4(6.1)
[3]; [10]
  MCCB Between-group Difference (Pooled SD): 8.4(5.1)
  MCCB Effect Size (Raw mean): 1.65
[3]; RS4818 C/C (major allele), 25 mg
  MCCB Change from Baseline to Final Mean(SD): 1.3(6.7)
[3]; [11]
  MCCB Between-group Difference (Pooled SD): 1.8(5.3)
  MCCB Effect Size (Raw mean): 0.34
[3]; RS4818 G/C or G/G (minor allele), 10 mg
  MCCB Change from Baseline to Final Mean(SD): 1.2(3.8)
[3]; [12]
  MCCB Between-group Difference (Pooled SD): 1.8(3.9)
  MCCB Effect Size (Raw mean): 0.46
[3]; RS4818 G/C or G/G (minor allele), 25 mg
  MCCB Change from Baseline to Final Mean(SD): 5.8(5.3)
[3]; [13]
  MCCB Between-group Difference (Pooled SD): 6.4(4.8)
  MCCB Effect Size (Raw mean): 1.33
[3]; RS6269 A/A (major allele), 25 mg
  MCCB Change from Baseline to Final Mean(SD): 1.9(6.3)
[3]; [14]
  MCCB Between-group Difference (Pooled SD): 2.2(4.9)
  MCCB Effect Size (Raw mean): 0.45
[3]; RS6269 G/G or A/G (minor allele), 10 mg
  MCCB Change from Baseline to Final Mean(SD): 1.0(3.5)
[3]; [15]
  MCCB Between-group Difference (Pooled SD): 1.9(3.9)
  MCCB Effect Size (Raw mean): 0.49
[3]; RS6269 G/G or A/G (minor allele), 25 mg
  MCCB Change from Baseline to Final Mean(SD): 5.9(5.6)
[3]; [16]
  MCCB Between-group Difference (Pooled SD): 6.8(5.2)
  MCCB Effect Size (Raw mean): 1.31
[3]; minor allele of the four COMT SNPs
  treatment effect on MCCB: highly robust
[3]; subjects containing the major allele
  treatment effect on MCCB: meaningful effect
[4]
  results on the CANTAB battery relative to MCCB results: consistent

From patent US20130317056A1, “NEURONAL NICOTINIC AGONISTS AND METHODS OF CORRELATING COMT SNPS” (ABBVIE INC., priority 2012, published 2013)
